These results are taken from patent US7285569B2, “Tricycles, their manufacture and use as pharmaceutical agents” (Hoff Hoffmann-La Roche Inc., priority 2004, dated 2007).

The first test has as its target T1, Aurora A (Homo sapiens, UniProt O14965).
T1 construct: C-terminally Histidine4 (His4)-tagged Aurora A full-length protein
T1 sequence (O14965 1-403): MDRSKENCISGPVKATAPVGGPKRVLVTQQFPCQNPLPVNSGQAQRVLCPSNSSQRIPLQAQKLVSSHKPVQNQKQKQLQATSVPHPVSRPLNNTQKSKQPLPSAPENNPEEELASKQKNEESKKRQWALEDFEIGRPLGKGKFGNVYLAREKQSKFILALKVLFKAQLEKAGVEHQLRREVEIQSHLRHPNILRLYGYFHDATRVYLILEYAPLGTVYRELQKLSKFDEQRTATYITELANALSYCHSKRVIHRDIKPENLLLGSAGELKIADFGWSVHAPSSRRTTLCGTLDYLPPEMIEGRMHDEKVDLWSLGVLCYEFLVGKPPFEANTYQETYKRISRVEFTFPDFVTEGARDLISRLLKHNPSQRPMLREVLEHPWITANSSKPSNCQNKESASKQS
The test can be described thus: IC50 determination for inhibitors of Aurora A (96 MTP-ELISA). The test is classed as biochemical. The settings on record: His4-tagged full-length Aurora A 250 ng/ml, PKB-GSK2 200 nM, ATP 4 μM, 90 min at room temperature; read-out: IC50 Aurora A kinase inhibition. The text has this: IC50 Determination for Inhibitors of Aurora A
Aurora A is a serine threonine kinase involved in spindle assembly and chromosome segregation.
The assay is a typically ELISA-type assay where biotinylated substrate (PKB-GSK2) is phosphorylated. Phosphorylation is detected by peroxidase (POD) labelled polyclonal antibody (PAK<M-Ig>S-IgG-POD) and phosphopeptide monoclonal antibody (Mab) (MAK<P-GSK>M-27E5-IgG). The assay is validated for IC50-determination.
Aurora A-His-4 C-terminally Histidine4 (His4)-tagged Aurora A full-length protein, stock solution 0.7 mg/ml, final conc.: 250 ng/ml
PKB-GSK2 biotinylated peptide derived from human GSK3-alpha sequence (Biotin-SGRARTSSFAEPGG-CONH2), stock solution 600 μM, final conc.: 200 nM
ATP Adenosine-5′-triphosphate 1 mM, diluted in kinase buffer, (Roche Diagnostics GmbH, Cat. No.: 127531-001,), final conc.: 4 μM
Kinase buffer 50 mM TRIS, 10 mM MgCl2, 1 mM DTT, 0.1% Tween 20, pH 7.8
This assay is performed in 96-well format for IC50 determination with 5 samples (each with 8 concentrations by twofold testing), 100 μl incubation volume and the following plate layout:
Step/Action 1. Sample preparation: add 24 μl per well samples (descending sequence) diluted in kinase buffer to assay plate (final conc. for DMSO 1%). 2. Add directly 16 μl Aurora-A-his-4 diluted in kinase buffer to assay plate. 3. Add directly 40 μl per well PKB-GSK2/ATP mixture to assay plate, (final conc.: Aurora A=250 ng/ml, GSK2=200 nM, ATP=4 μM). Negative control: without ATP. 4. Incubate assay plate for exactly 90 min at room temperature. 5. Stop reaction by adding 20 μl EDTA in all wells. 6. Wash assay plate 3× with 200 μl washing buffer per well. 7. Add 100 μl MAK<P-GSK>M27E5-IgG (1:10000) and PAK<M-Ig>S-IgG-POD (1:6000) dissolved in 3% BSA/PBS-T to assay plate per well. 8. Incubate assay plate for 60 min at room temperature. 9. Wash assay plate 3× with 200 μl washing buffer per well 10. Add 100 μl ABTS solution to assay plate per well, incubate for approx. 4 min at RT on MTP shaker. 11. Measure absorption at 405/492 nm. 12. Calculate % inhibition as: (1−(Esample−ENC)/(EPC−ENC))×100 13. Calculate IC50 using a non-linear curve fit (XLfit software (ID Business Solution Ltd., Guilford, Surrey, UK))
Turning to `Cc1cc(-c2nc3cc4[nH]c(=O)n(C)c4cc3[nH]2)n[nH]1` [Example 10, 3-Methyl-6-(5-methyl-1H-pyrazol-3-yl)-3,5-dihydro-1H-benzo[1,2-d;4,5-d′]diimidazol-2-one], the half-inhibitory concentration (IC50) was 10 to 500 nM.
As for `CCc1[nH]nc(-c2nc3cc4c(cc3[nH]2)C(C)(C)C(=O)N4)c1C` [Example 19, 2-(5-Ethyl-4-methyl-1H-pyrazol-3-yl)-7,7-dimethyl-5,7-dihydro-1H-imidazo[4,5-f]indol-6-one], the half-maximal inhibitory concentration (IC50) fell in the range of 10 to 500 nM.
On the same count and under the same terms, as for `CC1(C)C(=O)Nc2cc3nc(-c4cc(C5CC5)[nH]n4)[nH]c3cc21` [Example 21, 2-(5-Cyclopropyl-1H-pyrazol-3-yl)-7,7-dimethyl-5,7-dihydro-1H-imidazo[4,5-f]indol-6-one], the figure is 10 to 500 nM.

In a further test the test system is HCT 116 cells. The test is described as follows: CellTiter-Glo assay in HCT 116 cells (antiproliferative activity). The class given is cell-based. The settings on record: HCT 116 human colon carcinoma cells, 5 days (120 h) incubation, CellTiter-Glo luminescence. The text has this:
Antiproliferative Activity
CellTiter-Glo™ Assay in HCT 116 Cells
The CellTiter-Glo™ Luminescent Cell Viability Assay (Promega) is a homogeneous method of determining the number of viable cells in culture based on quantitation of the ATP present, which signals the presence of metabolically active cells.
HCT 116 cells (human colon carcinoma, ATCC-No. CCI-247) were cultivated in RPMI 1640 medium with GlutaMAX™ I (Invitrogen, Cat-No. 61870-010), 2.5% Fetal Calf Serum (FCS, Sigma Cat-No. F4135 (FBS)); 100 Units/ml penicillin/100 μg/ml streptomycin (=Pen/Strep from Invitrogen Cat. No. 15140). For the assay the cells were seeded in 384 well plates, 1000 cells per well, in the same medium. The next day the test compounds were added in various concentrations ranging from 30 μM to 0.0015 μM (10 concentrations, 1:3 diluted). After 5 days the CellTiter-Glo™ assay was done according to the instructions of the manufacturer (CellTiter-Glo™ Luminescent Cell Viability Assay, from Promega). In brief: the cell-plate was equilibrated to room temperature for approximately 30 minutes and than the CellTiter-Glo™ reagent was added. The contents were carefully mixed for 15 minutes to induce cell lysis. After 45 minutes the luminescent signal was measured in Victor 2, (scanning multiwell spectrophotometer, Wallac).
Medium: RPMI 1640 with GlutaMAX™ I (Invitrogen, Cat-Nr. 61870), 5% FCS (Sigma Cat.-No. F4135), Pen/Strep (Invitrogen, Cat No. 15140).
HCT116 (ATCC-No. CCI-247): 1000 cells in 60 μl per well of 384 well plate (Greiner 781098, μClear-plate white)
After seeding incubate plates 24 h at 37° C., 5% CO2
2nd. Day: Induction (Treatment with Compounds, 10 Concentrations):
In order to achieve a final concentration of 30 μM as highest concentration 3.5 μl of 10 mM compound stock solution were added directly to 163 μl media. Then step e) of the dilution procedure described below, was followed.
In order to achieve the second highest to the lowest concentrations, a serial dilution with dilution steps of 1:3 was followed according to the procedure (a-e) as described here below: • for the second highest concentration add 10 μl of 10 mM stock solution of compound to 20 μl dimethylsulfoxide (DMSO) • dilute 8×1:3 (always 10 μl to 20 μl DMSO) in this DMSO dilution row (results in 9 wells with concentrations from 3333.3 μM to 0.51 μM) • dilute each concentration 1:47.6 (3.5 μl compound dilution to 163 μl media) • add 10 μl of every concentration to 60 μl media in the cell plate resulting in final concentration of DMSO: 0.3% in every well and resulting in 10 final concentration of compounds ranging from 30 μM to 0.0015 μM. • Each compound is tested in triplicate. • Incubate 120 h (5 days) at 37° C., 5% CO2 Analysis:
Add 30 μl CellTiter-Glo™ Reagent (prepared from CellTiter-Glo™ Buffer and CellTiter-Glo™ Substrate (lyophilized) purchased from Promega) per well, • shake 15 minutes at room temperature • incubate further 45 minutes at room temperature without shaking Measurement:
Victor 2 scanning multiwell spectrophotometer (Wallac), Luminescence mode (0.5 sec/read, 477 nm)
Determine IC50 using a non-linear curve fit (XLfit software (ID Business Solution Ltd., Guilford, Surrey, UK))
Regarding `CC(C)Cc1cc(-c2nc3cc4c(cc3[nH]2)NC(=O)C42CCCC2)[nH]n1` [Example 8, 2-(5-Isobutyl-2H-pyrazol-3-yl)-spiro-5,7-dihydro[cyclopentane-1′,7-imidazo[4,5-f]indol]-6(3H)-one], the half-inhibitory concentration (IC50) lay within 100 to 10000 nM.
Take `CCN1C(=O)C(C)(C)c2cc3nc(-c4cc(C)[nH]n4)[nH]c3cc21` [Example 12, 5-Ethyl-7,7-dimethyl-2-(5-methyl-1H-pyrazol-3-yl)-5,7-dihydro-3H-imidazo[4,5-f]indol-6-one]: the IC50 is 100 to 10000 nM.
On the same count and under the same terms, as for `CCCc1cc(-c2nc3cc4c(cc3[nH]2)N(C)C(=O)C4(C)C)[nH]n1` [Example 14, 5,7,7-Trimethyl-2-(5-propyl-2H-pyrazol-3-yl)-5,7-dihydro-3H-imidazo[4,5-f]indol-6-one], the figure is 1200 nM.
Same read-out and setting: as for `CCN1C(=O)C(C)(C)c2cc3nc(-c4cc(CC(C)C)n[nH]4)[nH]c3cc21` [Example 15, 5-Ethyl-2-(5-isobutyl-2H-pyrazol-3-yl)-7,7-dimethyl-5,7-dihydro-3H-imidazo[4,5-f]indol-6-one], the figure is 100 to 10000 nM.
In the case of `CC(C)Cc1cc(-c2nc3cc4c(cc3[nH]2)N(C)C(=O)C4(C)C)[nH]n1` [Example 16, 2-(5-Isobutyl-2H-pyrazol-3-yl)-5,7,7-trimethyl-5,7-dihydro-3H-imidazo[4,5-f]indol-6-one], the IC50 lay within 100 to 10000 nM.
The molecule `CC1(C)C(=O)Nc2cc3nc(-c4cc[nH]n4)[nH]c3cc21` [Example 20, 7,7-Dimethyl-2-(1H-pyrazol-3-yl)-5,7-dihydro-1H-imidazo[4,5-f]indol-6-one] had an IC50 of 100 to 10000 nM.
On the same count and under the same terms, for `CC(C)c1cc(-c2nc3cc4c(cc3[nH]2)C(C)(C)C(=O)N4)[nH]n1` [Example 22, 2-(5-Isopropyl-2H-pyrazol-3-yl)-7,7-dimethyl-5,7-dihydro-1H-imidazo[4,5-f]indol-6-one] the value was 100 to 10000 nM; for `CN1C(=O)C(C)(C)c2cc3nc(-c4cc[nH]n4)[nH]c3cc21` [Example 30, 5,7,7-Trimethyl-2-(1H-pyrazol-3-yl)-5,7-dihydro-3H-imidazo[4,5-f]indol-6-one], 100 to 10000 nM; for `CCN1C(=O)C(C)(C)c2cc3nc(-c4cc[nH]n4)[nH]c3cc21` [Example 32, 5-Ethyl-7,7-dimethyl-2-(1H-pyrazol-3-yl)-5,7-dihydro-3H-imidazo[4,5-f]indol-6-one], 100 to 10000 nM.
Take `CCCc1cc(-c2nc3cc4c(cc3[nH]2)N(CC)C(=O)C4(C)C)[nH]n1` [Example 33, 5-Ethyl-7,7-dimethyl-2-(5-propyl-2H-pyrazol-3-yl)-5,7-dihydro-3H-imidazo[4,5-f]indol-6-one; compound with acetic acid]: the half-maximal inhibitory concentration (IC50) was in the range of 100 to 10000 nM.
As to `CC1(C)C(=O)Nc2cc3nc(-c4cc(C(F)(F)F)n[nH]4)[nH]c3cc21` [Example 38, 7,7-Dimethyl-2-(5-trifluoromethyl-2H-pyrazol-3-yl)-5,7-dihydro-1H-imidazo[4,5-f]indol-6-one], the IC50 fell in the range of 10000 to 100000 nM.
Take `CCN1C(=O)C(C)(C)c2cc3nc(-c4cc(C(F)(F)F)[nH]n4)[nH]c3cc21` [Example 39, 5-Ethyl-7,7-dimethyl-2-(5-trifluoromethyl-1H-pyrazol-3-yl)-5,7-dihydro-3H-imidazo[4,5-f]indol-6-one]: the IC50 fell in the range of 100 to 10000 nM.
The same measure, in the same setting: for `CN1C(=O)C(C)(C)c2cc3nc(-c4cc(C(F)(F)F)n[nH]4)[nH]c3cc21` [Example 42, 5,7,7-Trimethyl-2-(5-trifluoromethyl-2H-pyrazol-3-yl)-5,7-dihydro-3H-imidazo[4,5-f]indol-6-one] the value was 980 nM; for `O=C1Nc2cc3nc(-c4cc(C5CC5)[nH]n4)[nH]c3cc2C12CCCC2` [Example 43, 2-(5-Cyclopropyl-2H-pyrazol-3-yl)-spiro-5,7-dihydro[cyclopentane-1′,7-imidazo[4,5-f]indol]-6(3H)-one], 100 to 10000 nM.
On the same count and under the same terms, as for `CCN1C(=O)C(C)(C)c2cc3nc(-c4cc(OC)[nH]n4)[nH]c3cc21` [Example 44, 5-Ethyl-2-(5-methoxy-1H-pyrazol-3-yl)-7,7-dimethyl-5,7-dihydro-3H-imidazo[4,5-f]indol-6-one], the figure is 100 to 10000 nM.
Molecule `CCN1C(=O)C(C)(C)c2cc3[nH]c(-c4cc(SC)[nH]n4)nc3cc21` [Example 45, 5-Ethyl-7,7-dimethyl-2-(5-methylsulfanyl-1H-pyrazol-3-yl)-5,7-dihydro-1H-imidazo[4,5-f]indol-6-one] displayed an IC50 of 100 to 10000 nM.

One may read the IC50 as the concentration that inhibits the measured activity by half.
